Earlier results in US8216611B2, “Combined-step process for pharmaceutical compositions” (Mylan Pharmaceuticals ULC, priority 2005, dated 2012).

Columns and labels:
healthy volunteers = system: healthy volunteers; design: tolerability at single dose: dose or concentration left out as unconfirmed
epileptic patients = conditions: doses up to 4000 mg/day, preliminary data

CC[C@@H](C(N)=O)N1CCCC1=O [levetiracetam, (−)-(S)-α-ethyl-2-oxo-1-pyrrolidine acetamide]
tolerability at repeated doses (healthy volunteers; repeated doses (1500 mg/day for 14 days)): well tolerated | tolerability at single dose (healthy volunteers; single dose): well tolerated | tolerability in epileptic patients (epileptic patients): good tolerability | solubility in water: 104.0 g/100 ml
